system: G3BP1 NFT2; format: binding, human; conditions: library DMS-CoV; bait G3BP1 NFT2; prey N; peptide APRITFGGPSDSTGSN; listed as aa = residue placed at this position; column sums to 1

Row | Sequence | DMS PSSM value, S (position 10) | DMS PSSM value, S (position 12) | DMS PSSM value, S (position 15) | DMS PSSM value, T (position 5)
1 | APRITFGGPSDSTGSN S10N (APRITFGGPNDSTGSN) | 0 |  |  | 
2 | APRITFGGPSDSTGSN S10P (APRITFGGPPDSTGSN) | 0.1036 |  |  | 
3 | APRITFGGPSDSTGSN S10Q (APRITFGGPQDSTGSN) | 0.008177 |  |  | 
4 | APRITFGGPSDSTGSN S10R (APRITFGGPRDSTGSN) | 0 |  |  | 
5 | APRITFGGPSDSTGSN S10T (APRITFGGPTDSTGSN) | 0.01147 |  |  | 
6 | APRITFGGPSDSTGSN S10V (APRITFGGPVDSTGSN) | 0.01109 |  |  | 
7 | APRITFGGPSDSTGSN S10W (APRITFGGPWDSTGSN) | 0 |  |  | 
8 | APRITFGGPSDSTGSN S10Y (APRITFGGPYDSTGSN) | 0.2277 |  |  | 
9 | APRITFGGPSDSTGSN S12A (APRITFGGPSDATGSN) |  | 0.01432 |  | 
10 | APRITFGGPSDSTGSN S12D (APRITFGGPSDDTGSN) |  | 0 |  | 
11 | APRITFGGPSDSTGSN S12E (APRITFGGPSDETGSN) |  | 0.0009188 |  | 
12 | APRITFGGPSDSTGSN S12F (APRITFGGPSDFTGSN) |  | 0.0072 |  | 
13 | APRITFGGPSDSTGSN S12G (APRITFGGPSDGTGSN) |  | 0.0009188 |  | 
14 | APRITFGGPSDSTGSN S12H (APRITFGGPSDHTGSN) |  | 0.0346 |  | 
15 | APRITFGGPSDSTGSN S12I (APRITFGGPSDITGSN) |  | 0.4295 |  | 
16 | APRITFGGPSDSTGSN S12K (APRITFGGPSDKTGSN) |  | 0 |  | 
17 | APRITFGGPSDSTGSN S12L (APRITFGGPSDLTGSN) |  | 0.001118 |  | 
18 | APRITFGGPSDSTGSN S12M (APRITFGGPSDMTGSN) |  | 0.01193 |  | 
19 | APRITFGGPSDSTGSN S12N (APRITFGGPSDNTGSN) |  | 0.001178 |  | 
20 | APRITFGGPSDSTGSN S12P (APRITFGGPSDPTGSN) |  | 0 |  | 
21 | APRITFGGPSDSTGSN S12Q (APRITFGGPSDQTGSN) |  | 0.01405 |  | 
22 | APRITFGGPSDSTGSN S12R (APRITFGGPSDRTGSN) |  | 0 |  | 
23 | APRITFGGPSDSTGSN S12T (APRITFGGPSDTTGSN) |  | 0.00392 |  | 
24 | APRITFGGPSDSTGSN S12V (APRITFGGPSDVTGSN) |  | 0.04482 |  | 
25 | APRITFGGPSDSTGSN S12W (APRITFGGPSDWTGSN) |  | 0.01354 |  | 
26 | APRITFGGPSDSTGSN S12Y (APRITFGGPSDYTGSN) |  | 0.2998 |  | 

Row | Sequence | DMS PSSM value, S (position 10) | DMS PSSM value, S (position 12) | DMS PSSM value, S (position 15) | DMS PSSM value, T (position 5)
27 | APRITFGGPSDSTGSN S15A (APRITFGGPSDSTGAN) |  |  | 0.001992 | 
28 | APRITFGGPSDSTGSN S15D (APRITFGGPSDSTGDN) |  |  | 0.002282 | 
29 | APRITFGGPSDSTGSN S15E (APRITFGGPSDSTGEN) |  |  | 0.0004817 | 
30 | APRITFGGPSDSTGSN S15F (APRITFGGPSDSTGFN) |  |  | 0.2174 | 
31 | APRITFGGPSDSTGSN S15G (APRITFGGPSDSTGGN) |  |  | 0.002342 | 
32 | APRITFGGPSDSTGSN S15H (APRITFGGPSDSTGHN) |  |  | 0.01115 | 
33 | APRITFGGPSDSTGSN S15I (APRITFGGPSDSTGIN) |  |  | 0.3514 | 
34 | APRITFGGPSDSTGSN S15K (APRITFGGPSDSTGKN) |  |  | 0.0001786 | 
35 | APRITFGGPSDSTGSN S15L (APRITFGGPSDSTGLN) |  |  | 0.01038 | 
36 | APRITFGGPSDSTGSN S15M (APRITFGGPSDSTGMN) |  |  | 0.006693 | 
37 | APRITFGGPSDSTGSN S15N (APRITFGGPSDSTGNN) |  |  | 0.001916 | 
38 | APRITFGGPSDSTGSN S15P (APRITFGGPSDSTGPN) |  |  | 0.1504 | 
39 | APRITFGGPSDSTGSN S15Q (APRITFGGPSDSTGQN) |  |  | 0.01454 | 
40 | APRITFGGPSDSTGSN S15R (APRITFGGPSDSTGRN) |  |  | 0 | 
41 | APRITFGGPSDSTGSN S15T (APRITFGGPSDSTGTN) |  |  | 0.008335 | 
42 | APRITFGGPSDSTGSN S15V (APRITFGGPSDSTGVN) |  |  | 0.03856 | 
43 | APRITFGGPSDSTGSN S15W (APRITFGGPSDSTGWN) |  |  | 0.00112 | 
44 | APRITFGGPSDSTGSN S15Y (APRITFGGPSDSTGYN) |  |  | 0.1419 | 
45 | APRITFGGPSDSTGSN T5A (APRIAFGGPSDSTGSN) |  |  |  | 0
46 | APRITFGGPSDSTGSN T5D (APRIDFGGPSDSTGSN) |  |  |  | 0
47 | APRITFGGPSDSTGSN T5E (APRIEFGGPSDSTGSN) |  |  |  | 0.4512
48 | APRITFGGPSDSTGSN T5F (APRIFFGGPSDSTGSN) |  |  |  | 0
49 | APRITFGGPSDSTGSN T5G (APRIGFGGPSDSTGSN) |  |  |  | 0
50 | APRITFGGPSDSTGSN T5H (APRIHFGGPSDSTGSN) |  |  |  | 0
51 | APRITFGGPSDSTGSN T5I (APRIIFGGPSDSTGSN) |  |  |  | 0.002921

Reference: paper PMC12102759 (Protein Science : A Publication of the Protein Society, 2025)
